What was measured:
[1] = system: E. coli expressing the A. marina VHPO gene; test: Bromoform production by E. coli expressing A. marina VHPO with 1,3-dicarbonyl substrates of Table 4; format: cell-based, Escherichia coli; details: 1 mM substrate, 100 mM H2O2, 24 hours room temperature; FIG. 8
Protocol: A sample with no additional substrate was also run as a control experiment. Samples (1 mL) were incubated in sealed tubes at room temperature for 24 hours. 10 μL samples from each were withdrawn and added to 1 mL brine to improve phase separation16 and placed in a 20 mL GC vial, which were then sealed with magnetic screw caps (Agilent). The head space of each sample was analyzed by solid phase microextraction (SPME) GC-MS.
To test for bromoform production E. coli cells were resuspended in 1 mL water/100 mL culture volume and 20% v/v of this cell suspension was added to a solution of substrate listed in Table 4 in addition to 100 mM HEPES (pH 7.4), 20 mM KBr, 1 mM Na3VO4, and 100 mM H2O2. Samples (1 mL) were incubated in sealed tubes at room temperature for 24 hours. 10 μL samples from each were withdrawn and added to 1 mL brine in a GC vial before sealing. The head space of each sample was analysed by solid phase microextraction (SPME) GC/MS as above. Bromoform was quantified by comparison with a standard curve prepared from authentic samples of bromoform as described above.

[2] = cited from earlier work
[3] = system: S. cerevisiae BY4741 transformed with pRS-ePST1-AmVHPO; test: Bromoform synthesis by S. cerevisiae with peroxisome-targeted VHPO in SDUGGO media; format: cell-based, Saccharomyces cerevisiae; details: 0.1% oleic acid together with 3-amino-1,2,4-triazol
Protocol: 10 mL seed cultures of were inoculated with a single colony of BY4741 transformed with pRS-ePST1-AmVHPO in SD and grown at 220 rpm, 30° C. overnight. These were used to inoculate 10 mL cultures of SDUGGO media (uracil (0.67% yeast nitrogenous base without amino acids, 0.192% Merck yeast synthetic dropout medium supplement without uracil, 10% glycerol, 0.1% glucose, 100 mM KBr, 1 mM Na3VO4, 100 mM MOPS (pH 6.5), 0.1% oleic acid emulsified in 1% tergitol) at an initial OD600 of 2.0, and incubated for a further 24 hours at 220 rpm, 30° C. As with E. coli, samples were grown in 50 mL tubes with the lids closed to minimize the loss of bromoform by evaporation. Cells were harvested by centrifugation and resuspended in 1 mL of brine (6 M NaCl), transferred into 20 mL headspace GC vials and sealed with a magnetic screw cap before analysis by SPME-GC-MS.
With this plasmid in hand, the media was adapted to allow for maximum flux through beta-oxidation, incorporating both oleic acid to induce β-oxidation and glycerol as a non-repressing carbon source. A small amount of glucose (0.1%) was also included to stimulate initial cell growth, alongside Mops buffer (pH 6.5), which improved bromoform production compared with unbuffered cultures. KBr and Na3VO4 were also added to allow for VHPO activity.

[4] = system: E. coli transformed to express VHPO; test: Bromoform biosynthesis in growing E. coli cultures expressing VHPO with inhibitors or oleic acid; format: cell-based, Escherichia coli; details: for production of bromoform in culture: 0.1% oleic acid, 1% tergitol, with amino-triazole to inhibit catalase; for bromoform observed in culture: 0.5 g/L tannic acid together with 10 mM 3-amino-1,2,4-triazole, 18 hours
Protocol: (§1) VHPO was expressed in E. coli isolate BL21 (DE3) as described above. Alongside IPTG (0.2 mM) the culture was also supplemented with 50 mM KBr, 1 mM Na3VO4, 10 mM 3-amino,1,2,4-triazole, and 0.5 g/L tannic acid or 0.1% oleic acid (emulsified with 1% tergitol (Merck, Ma USA)). Typically, 10 mL LB cultures were grown in 50 mL tubes with the lids closed. Vented tubes led to the loss of bromoform by evaporation. Cells were harvested by centrifugation and resuspended in 1 mL of brine (6 M NaCl), transferred into 20 mL headspace GC vials and sealed with a magnetic screw cap before analysis by SPME-GC-MS.
This strategy utilizes tannic acid to inhibit FabG to promote the accumulation acetoacyl-acyl-carrier-proteins (Wu et al., 2010), alongside 3-amino-1,2,4-triazol to inhibit catalase and promote the accumulation of H2O2(Meir and Yagil, 1985). FabG is β-ketoacyl-ACP reductase [EC 1.1.1.100], an enzyme that catalyses the reduction of acetoacyl-acyl carrier proteins during fatty acid synthesis. Catalase consumes the intracellular H2O2 which is required for VHPO activity. Both inhibitors were added to cultures E. coli transformed to express VHPO upon induction with IPTG. The VHPO gene from the marine cyanobacterium Acaryochloris marina MBIC110174 was synthesized by Epoch Life Science Inc. (Tx, USA) using the published gene sequence (GenBank Accession CP000828-nucleotides 5020736-5018817). This gene sequence was codon optimized for E. coli expression and cloned into expression vector pACYCDuet1 under the regulatory control of a LacI repressor and T7 promoter and terminator sequences. Cell growth was allowed to continue for 18 hours in the presence of these molecules with the addition of KBr and Na3VO4, before harvesting the cells by centrifugation and analysis of bromoform levels.
as §1, with “Alongside” for “VHPO was expressed in E. coli isolate BL21 (DE3) as described above. Alongside”

[5] = system: E. coli expressing the A. marina VHPO gene; test: Time course of bromoform production from acetylacetone by the E. coli cell suspension with repeated H2O2 addition; format: cell-based, Escherichia coli
Protocol: It was hypothesized that with sufficient hydrogen peroxide supply full conversion to bromoform could be achieved. To this end an additional reaction was set up with 10% E. coli cell suspension 100 mM HEPES (pH 7.4), 100 mM KBr, 1 mM Na3VO4, and 400 mM H2O2 added to initiate the reaction, then again after 2 and 4 hours. 10 μL of this reaction was sampled at 0, 20, 60, 120, 180, 240, and 360 minutes, the reaction was stopped by addition of 1 mL of ice cold brine and samples were stored in sealed GC vials at −20° C. before analysis by SPME-GC/MS as above. Bromoform was quantified by comparison with a standard curve prepared from authentic samples of bromoform, added to control samples (identical to the reaction, except containing no bromide), to account for matrix effects. The time course and standard curve is shown below in FIG. 7.

[6] = system: E. coli expressing the A. marina VHPO gene; test: Bromoform production by E. coli cells expressing A. marina VHPO with Table 3 substrates (SPME-GC/MS); format: cell-based, Escherichia coli; details: 1 mM substrate, 50 mM H2O2, 24 hours room temperature; compared with the other samples of Table 3
Protocol: Transformed E. coli were then grown in LB with 30 μg/mL chloramphenicol at 37° C. 220 rpm, until OD600 ˜0.6. IPTG 0.2 mM was then added and the cultures transferred to 28° C. with shaking at 220 rpm for a further 18 hours. Cells were harvested by centrifugation and kept at −20° C. before further use.
To test for bromoform production E. coli cells were resuspended in 1 mL water/100 mL culture volume and 20% v/v of this cell suspension was added to a solution of substrate listed below in Table 3, 100 mM HEPES (pH 7.4), 20 mM KBr, 1 mM Na3VO4, and 50 mM H2O2. Samples (100 μL) were incubated in sealed GC vials at room temperature for 24 hours. The head space of each sample was analysed by solid phase microextraction (SPME) GC/MS using a 7890A series gas chromatograph, a 5975C inert XL MSD mass selective detector and a MPS2 Gerstel multipurpose autosampler. Bromoform was identified in samples by comparison of the retention time with an authentic standard (Sigma, USA) and by mass spectral matching using the NIST/EPA/NIH Mass Spectral Library (version 2014). Relative bromoform quantities were measured by integration of the m/z=250 signal in extracted ion chromatograms generated using Agilent Mass Hunter software (version 10.0).

[7] = molecular target: T1, VHPO extracted from Corallina officinalis (Corallina officinalis, UniProt Q8LLW7); test: Bromoform synthesis by extracted enzyme; format: biochemical; details: 0.1 U VHPO, 10 mM substrate, 50 mM KBr, 50 mM H2O2
T1 construct: VHPO extracted from Corallina officinalis (Sigma); purchased Sigma; host or cells: extracted from the red alga Corallina officinalis (natural source)
T1 sequence (Q8LLW7 1-598): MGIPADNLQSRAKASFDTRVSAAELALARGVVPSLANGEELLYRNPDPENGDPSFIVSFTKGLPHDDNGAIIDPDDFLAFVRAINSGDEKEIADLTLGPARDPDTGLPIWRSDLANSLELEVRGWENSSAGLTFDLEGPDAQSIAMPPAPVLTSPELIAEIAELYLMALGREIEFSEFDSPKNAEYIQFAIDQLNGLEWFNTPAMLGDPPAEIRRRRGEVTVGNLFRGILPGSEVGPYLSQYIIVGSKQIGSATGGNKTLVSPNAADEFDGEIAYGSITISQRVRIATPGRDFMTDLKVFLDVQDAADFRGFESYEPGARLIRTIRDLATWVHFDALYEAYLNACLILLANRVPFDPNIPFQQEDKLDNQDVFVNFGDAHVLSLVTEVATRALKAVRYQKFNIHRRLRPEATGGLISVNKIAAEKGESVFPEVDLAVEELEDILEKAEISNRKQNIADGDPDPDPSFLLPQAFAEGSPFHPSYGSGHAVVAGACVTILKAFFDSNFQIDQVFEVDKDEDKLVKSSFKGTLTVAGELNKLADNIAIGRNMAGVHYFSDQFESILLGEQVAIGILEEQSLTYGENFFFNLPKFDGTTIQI
Protocol: The whole reaction (100 μL) was transferred to a GC-Headspace vial and left at room temperature until analysis by SPME-GCMS as before. Relative bromoform levels were assessed as described above.

For `CCC(=O)CC(=O)CC` [3,5-heptanedione], the bromoform production [1] was “increase in bromoform production”.

In the case of `CCOC(=O)CC(C)=O` [ethyl acetoacetate], the “pKa (H2O solvent reference)” value [2] is given as 10.7 (Brodwell, personal and the bromoform production [1] is given as “increase in bromoform production”.

In the case of `Nc1nc[nH]n1` [3-amino-1,2,4-triazol], the “bromoform detected in the cell pellet” value [3] is reported as “only when both oleic acid and 3-amino-1,2,4-triazol were added”, the “production of bromoform in culture” value [4] is reported as “trace amounts” and the “bromoform observed in culture” value [4] is reported as “only observed when both inhibitors were added”.

With `CC(=O)CC(C)=O` [acetylacetone] the “amount of bromoform synthesised” value ([5]; 400 mM H2O2 added at start and again after 2 and 4 hours) was 5 mg/mL, the “conversion to bromoform (yield based on acetylacetone)” value ([5]; after three hours, 400 mM H2O2 added at start and again after 2 and 4 hours) was 97% and the “part of acetylacetone converted rapidly to bromoform” value ([5]; initial phase of the reaction) was “Approximately half”. For the same compound, the bromoform production [1] was “increase in bromoform production” and the “increase in bromoform production” value [6] was 10 fold.

With `CCCCCCCC/C=C\CCCCCCCC(=O)O` [oleic acid] the “bromoform detected in the cell pellet” value [3] was “only when both oleic acid and 3-amino-1,2,4-triazol were added” and the “production of bromoform in culture” value [4] was “trace amounts”.

In the case of `CC1(C)CC(=O)CC(=O)C1` [5,5-dimethyl-1,3-cyclohexanedione], the “pKa (H2O solvent reference)” value [2] is listed as 5.2 (Brodwell, personal, the “increase in bromoform concentration relative to acetone” value ([7]; listed as dimedone) is listed as 51 fold and the “increase in bromoform concentration relative to acetone” value ([7]; listed as dimidone) is listed as “up to 50 fold”. For the same compound, the bromoform production [1] was “increase in bromoform production”.

With `O=C(OC[C@H]1O[C@@H](OC(=O)c2cc(O)c(O)c(OC(=O)c3cc(O)c(O)c(O)c3)c2)[C@H](OC(=O)c2cc(O)c(O)c(OC(=O)c3cc(O)c(O)c(O)c3)c2)[C@@H](OC(=O)c2cc(O)c(O)c(OC(=O)c3cc(O)c(O)c(O)c3)c2)[C@@H]1OC(=O)c1cc(O)c(O)c(OC(=O)c2cc(O)c(O)c(O)c2)c1)c1cc(O)c(O)c(OC(=O)c2cc(O)c(O)c(O)c2)c1` [tannic acid] the “bromoform observed in culture” value [4] was “only observed when both inhibitors were added”.

— patent US20250051805A1, “METHODS” (Commonwealth Scientific and Industrial Research Organisation, priority 2021, published 2025)
